{"source": "the supplement of paper PMC10307832", "assay_in_all_cases": "relative viability (nuclei count vs DMSO), 5 days (fraction); higher = more cells survive", "key": {"RERF-LC-KJ": {"system": "RERF-LC-KJ", "in_short": "(§1)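 Medians of duplicate plates are given as relative viability. That measure is the nuclei count in treated wells divided by the count in vehicle wells. Counts were taken on 4× images of lung cancer cell lines in 1536-well plates, 5 days after pin-tool dosing the day after seeding with one drug alone or a fixed anchor-drug dose plus five library-drug doses (not always all listed) in √10 steps.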"}, "NCI-H1755": {"system": "NCI-H1755", "in_short": "as §1"}, "HOP-62": {"system": "HOP-62", "in_short": "as §1"}, "A-427": {"system": "A-427", "in_short": "as §1"}, "NCI-H647": {"system": "NCI-H647", "in_short": "as §1"}, "NCI-H2228": {"system": "NCI-H2228", "in_short": "as §1"}, "NCI-H358": {"system": "NCI-H358", "in_short": "as §1"}, "LC-2-ad": {"system": "LC-2-ad", "in_short": "as §1"}, "NCI-H1734": {"system": "NCI-H1734", "in_short": "as §1"}, "NCI-H1915": {"system": "NCI-H1915", "in_short": "as §1"}, "LXF-289": {"system": "LXF-289", "in_short": "as §1"}, "PC-3 [JPC-3]": {"system": "PC-3 [JPC-3]", "in_short": "as §1"}, "NCI-H1792": {"system": "NCI-H1792", "in_short": "as §1"}, "HCC-15": {"system": "HCC-15", "in_short": "as §1"}, "SW 1573": {"system": "SW 1573", "in_short": "as §1"}, "NCI-H2126": {"system": "NCI-H2126", "in_short": "as §1"}, "SK-LU-1": {"system": "SK-LU-1", "in_short": "as §1"}, "NCI-H2347": {"system": "NCI-H2347", "in_short": "as §1"}, "HCC-78": {"system": "HCC-78", "in_short": "as §1"}, "NCI-H1975": {"system": "NCI-H1975", "in_short": "as §1"}}, "data": [{"compound": "O=c1cc(N2CCOCC2)oc2c(-c3cccc4c3sc3ccccc34)cccc12", "note": "+ Cc1nc(NC(=O)N2CCC[C@H]2C(N)=O)sc1-c1ccnc(C(C)(C)C(F)(F)F)c1 [Alpelisib] (partner 2 µM)", "values": [{"measurement": "relative viability", "setting": "RERF-LC-KJ; first compound 0.01 µM", "value": 0.834}, {"measurement": "relative viability", "setting": "RERF-LC-KJ; first compound 0.03162 µM", "value": 0.892}, {"measurement": "relative viability", "setting": "RERF-LC-KJ; first compound 0.1 µM", "value": 0.981}, {"measurement": "relative viability", "setting": "RERF-LC-KJ; first compound 0.3162 µM", "value": 0.86}, {"measurement": "relative viability", "setting": "RERF-LC-KJ; first compound 1 µM", "value": 0.9}, {"measurement": "relative viability", "setting": "NCI-H1755; first compound 0.01 µM", "value": 0.952}, {"measurement": "relative viability", "setting": "NCI-H1755; first compound 0.03162 µM", "value": 0.901}, {"measurement": "relative viability", "setting": "NCI-H1755; first compound 0.1 µM", "value": 0.984}, {"measurement": "relative viability", "setting": "NCI-H1755; first compound 0.3162 µM", "value": 0.866}, {"measurement": "relative viability", "setting": "NCI-H1755; first compound 1 µM", "value": 0.894}, {"measurement": "relative viability", "setting": "HOP-62; first compound 0.01 µM", "value": 1.08}, {"measurement": "relative viability", "setting": "HOP-62; first compound 0.03162 µM", "value": 0.958}, {"measurement": "relative viability", "setting": "HOP-62; first compound 0.1 µM", "value": 1.24}, {"measurement": "relative viability", "setting": "HOP-62; first compound 0.3162 µM", "value": 1.19}, {"measurement": "relative viability", "setting": "HOP-62; first compound 1 µM", "value": 1.1}, {"measurement": "relative viability", "setting": "A-427; first compound 0.01 µM", "value": 1.11}, {"measurement": "relative viability", "setting": "A-427; first compound 0.03162 µM", "value": 1.12}, {"measurement": "relative viability", "setting": "A-427; first compound 0.1 µM", "value": 1.03}, {"measurement": "relative viability", "setting": "A-427; first compound 0.3162 µM", "value": 1.04}, {"measurement": "relative viability", "setting": "A-427; first compound 1 µM", "value": 1.09}, {"measurement": "relative viability", "setting": "NCI-H647; first compound 0.01 µM", "value": 1.18}, {"measurement": "relative viability", "setting": "NCI-H647; first compound 0.03162 µM", "value": 1.2}, {"measurement": "relative viability", "setting": "NCI-H647; first compound 0.1 µM", "value": 1.24}, {"measurement": "relative viability", "setting": "NCI-H647; first compound 0.3162 µM", "value": 1.11}, {"measurement": "relative viability", "setting": "NCI-H647; first compound 1 µM", "value": 0.913}, {"measurement": "relative viability", "setting": "NCI-H2228; first compound 0.03162 µM", "value": 0.928}, {"measurement": "relative viability", "setting": "NCI-H2228; first compound 0.1 µM", "value": 0.713}, {"measurement": "relative viability", "setting": "NCI-H2228; first compound 0.3162 µM", "value": 0.877}, {"measurement": "relative viability", "setting": "NCI-H2228; first compound 1 µM", "value": 0.481}, {"measurement": "relative viability", "setting": "NCI-H358; first compound 0.01 µM", "value": 0.811}, {"measurement": "relative viability", "setting": "NCI-H358; first compound 0.03162 µM", "value": 0.807}, {"measurement": "relative viability", "setting": "NCI-H358; first compound 0.1 µM", "value": 0.841}, {"measurement": "relative viability", "setting": "NCI-H358; first compound 0.3162 µM", "value": 0.847}, {"measurement": "relative viability", "setting": "NCI-H358; first compound 1 µM", "value": 0.83}, {"measurement": "relative viability", "setting": "LC-2-ad; first compound 0.01 µM", "value": 0.91}, {"measurement": "relative viability", "setting": "LC-2-ad; first compound 0.1 µM", "value": 0.976}, {"measurement": "relative viability", "setting": "LC-2-ad; first compound 0.3162 µM", "value": 0.839}, {"measurement": "relative viability", "setting": "LC-2-ad; first compound 1 µM", "value": 0.906}, {"measurement": "relative viability", "setting": "NCI-H1734; first compound 0.01 µM", "value": 0.7}, {"measurement": "relative viability", "setting": "NCI-H1734; first compound 0.03162 µM", "value": 0.727}, {"measurement": "relative viability", "setting": "NCI-H1734; first compound 0.1 µM", "value": 0.686}, {"measurement": "relative viability", "setting": "NCI-H1734; first compound 0.3162 µM", "value": 0.698}, {"measurement": "relative viability", "setting": "NCI-H1734; first compound 1 µM", "value": 0.623}, {"measurement": "relative viability", "setting": "NCI-H1915; first compound 0.01 µM", "value": 1.08}, {"measurement": "relative viability", "setting": "NCI-H1915; first compound 0.03162 µM", "value": 1.04}, {"measurement": "relative viability", "setting": "NCI-H1915; first compound 0.1 µM", "value": 1.07}, {"measurement": "relative viability", "setting": "NCI-H1915; first compound 0.3162 µM", "value": 1.04}, {"measurement": "relative viability", "setting": "NCI-H1915; first compound 1 µM", "value": 1.06}, {"measurement": "relative viability", "setting": "LXF-289; first compound 0.01 µM", "value": 1.05}, {"measurement": "relative viability", "setting": "LXF-289; first compound 0.03162 µM", "value": 1.03}, {"measurement": "relative viability", "setting": "LXF-289; first compound 0.1 µM", "value": 1.05}, {"measurement": "relative viability", "setting": "LXF-289; first compound 0.3162 µM", "value": 1}, {"measurement": "relative viability", "setting": "LXF-289; first compound 1 µM", "value": 1.02}, {"measurement": "relative viability", "setting": "PC-3 [JPC-3]; first compound 0.01 µM", "value": 1.01}, {"measurement": "relative viability", "setting": "PC-3 [JPC-3]; first compound 0.03162 µM", "value": 1.05}, {"measurement": "relative viability", "setting": "PC-3 [JPC-3]; first compound 0.1 µM", "value": 1.02}, {"measurement": "relative viability", "setting": "PC-3 [JPC-3]; first compound 0.3162 µM", "value": 1.02}, {"measurement": "relative viability", "setting": "PC-3 [JPC-3]; first compound 1 µM", "value": 1.04}, {"measurement": "relative viability", "setting": "NCI-H1792; first compound 0.01 µM", "value": 0.677}, {"measurement": "relative viability", "setting": "NCI-H1792; first compound 0.03162 µM", "value": 0.628}, {"measurement": "relative viability", "setting": "NCI-H1792; first compound 0.1 µM", "value": 0.709}, {"measurement": "relative viability", "setting": "NCI-H1792; first compound 0.3162 µM", "value": 0.672}, {"measurement": "relative viability", "setting": "NCI-H1792; first compound 1 µM", "value": 0.674}, {"measurement": "relative viability", "setting": "HCC-15; first compound 0.01 µM", "value": 0.87}, {"measurement": "relative viability", "setting": "HCC-15; first compound 0.03162 µM", "value": 0.92}, {"measurement": "relative viability", "setting": "HCC-15; first compound 0.1 µM", "value": 0.971}, {"measurement": "relative viability", "setting": "HCC-15; first compound 0.3162 µM", "value": 0.859}, {"measurement": "relative viability", "setting": "HCC-15; first compound 1 µM", "value": 0.828}, {"measurement": "relative viability", "setting": "SW 1573; first compound 0.01 µM", "value": 1.13}, {"measurement": "relative viability", "setting": "SW 1573; first compound 0.03162 µM", "value": 0.736}, {"measurement": "relative viability", "setting": "SW 1573; first compound 0.1 µM", "value": 0.868}, {"measurement": "relative viability", "setting": "SW 1573; first compound 0.3162 µM", "value": 0.735}, {"measurement": "relative viability", "setting": "SW 1573; first compound 1 µM", "value": 0.733}, {"measurement": "relative viability", "setting": "NCI-H2126; first compound 0.01 µM", "value": 0.721}, {"measurement": "relative viability", "setting": "NCI-H2126; first compound 0.03162 µM", "value": 0.736}, {"measurement": "relative viability", "setting": "NCI-H2126; first compound 0.1 µM", "value": 0.762}, {"measurement": "relative viability", "setting": "NCI-H2126; first compound 0.3162 µM", "value": 0.733}, {"measurement": "relative viability", "setting": "NCI-H2126; first compound 1 µM", "value": 0.729}, {"measurement": "relative viability", "setting": "SK-LU-1; first compound 0.03162 µM", "value": 0.966}, {"measurement": "relative viability", "setting": "SK-LU-1; first compound 0.1 µM", "value": 0.985}, {"measurement": "relative viability", "setting": "SK-LU-1; first compound 0.3162 µM", "value": 1.09}, {"measurement": "relative viability", "setting": "SK-LU-1; first compound 1 µM", "value": 1.01}, {"measurement": "relative viability", "setting": "NCI-H2347; first compound 0.01 µM", "value": 1.17}, {"measurement": "relative viability", "setting": "NCI-H2347; first compound 0.03162 µM", "value": 1.04}, {"measurement": "relative viability", "setting": "NCI-H2347; first compound 0.1 µM", "value": 1.04}, {"measurement": "relative viability", "setting": "NCI-H2347; first compound 0.3162 µM", "value": 1}, {"measurement": "relative viability", "setting": "NCI-H2347; first compound 1 µM", "value": 1.02}, {"measurement": "relative viability", "setting": "HCC-78; first compound 0.01 µM", "value": 0.374}, {"measurement": "relative viability", "setting": "HCC-78; first compound 0.03162 µM", "value": 0.305}, {"measurement": "relative viability", "setting": "HCC-78; first compound 0.1 µM", "value": 0.299}, {"measurement": "relative viability", "setting": "HCC-78; first compound 0.3162 µM", "value": 0.406}, {"measurement": "relative viability", "setting": "HCC-78; first compound 1 µM", "value": 0.331}, {"measurement": "relative viability", "setting": "NCI-H1975; first compound 0.01 µM", "value": 0.619}, {"measurement": "relative viability", "setting": "NCI-H1975; first compound 0.03162 µM", "value": 0.623}, {"measurement": "relative viability", "setting": "NCI-H1975; first compound 0.1 µM", "value": 0.649}, {"measurement": "relative viability", "setting": "NCI-H1975; first compound 0.3162 µM", "value": 0.621}, {"measurement": "relative viability", "setting": "NCI-H1975; first compound 1 µM", "value": 0.608}]}]}
